Test results taken from US9376418B2, “Substituted pyridine spleen tyrosine kinase (SYK) inhibitors” (Merck Sharp & Dohme Corp., priority 2012, dated 2016).
pIC50: −log10 of the molar value.

Target: T1, recombinant human GST-SYK (Homo sapiens, UniProt P43405)
T1 construct: purchased Carna Biosciences 08-176
Assay: Homogeneous Time-Resolved Fluorescence (HTRF) assay for the recombinant human Syk enzyme
Type: biochemical
Details: HTRF assay, recombinant human GST-SYK; IC50 given as class symbols; read-out: rhSYK Activity
How it was run: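 HTRF read-out: Europium-anti-phosphotyrosine antibody (2 nM) plus SA-APC (70 nM) in EDTA-containing buffer quenched the reaction, and signal was read after 30 minutes. Kinase step used […], 250 nM biotinylated peptide, 25 μM ATP, 5 mM Mg, 45′ at room temperature.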

Row | Structure (SMILES) | pIC50
1 | Cc1cc(Nc2nccc(C(F)(F)F)n2)cc(-c2ccc(NCC3CCC(=O)N3)nc2)c1 (stereo not shown) [Example 7.16, 5-({[5-(3-methyl-5-{[4-(trifluoromethyl)pyrimidin-2-yl]amino}phenyl)pyridin-2-yl]amino}methyl)pyrrolidin-2-one] | > 7.00
2 | Cc1cc(Nc2nccc(C(F)(F)F)n2)cc(-c2ccc(NCCc3cnccn3)nc2)c1 [Example 7.18, N-(3-methyl-5-{6-[(2-pyrazin-2-ylethyl)amino]pyridin-3-yl}phenyl)-4-(trifluoromethyl)pyrimidin-2-amine] | > 7.00
3 | Cc1cc(Nc2nccc(C(F)(F)F)n2)cc(-c2ccc(NC(C)c3ccccn3)nc2)c1 (stereo not shown) [Example 7.19, N-(3-methyl-5-{6-[(1-pyridin-2-ylethyl)amino]pyridin-3-yl}phenyl)-4-(trifluoromethyl)pyrimidin-2-amine] | 6.00 to 7.00
4 | Cc1cc(Nc2nccc(C(F)(F)F)n2)cc(-c2ccc(NCc3cnn(C)c3)nc2)c1 [Example 7.20, N-[3-methyl-5-(6-{[(1-methyl-1H-pyrazol-4-yl)methyl]amino}pyridin-3-yl)phenyl]-4-(trifluoromethyl)pyrimidin-2-amine] | 6.00 to 7.00
5 | Cc1cc(Nc2nccc(C(F)(F)F)n2)cc(-c2ccc(NCc3ncnn3C)nc2)c1 [Example 7.21, N-[3-methyl-5-(6-{[(1-methyl-1H-1,2,4-triazol-5-yl)methyl]amino}pyridin-3-yl)phenyl]-4-(trifluoromethyl)pyrimidin-2-amine] | > 7.00
6 | Cc1cc(Nc2nccc(C(F)(F)F)n2)cc(-c2ccc(NC3CCNC3=O)nc2)c1 (stereo not shown) [Example 7.22, 3-{[5-(3-methyl-5-{[4-(trifluoromethyl)pyrimidin-2-yl]amino}phenyl)pyridin-2-yl]amino}pyrrolidin-2-one] | > 7.00
7 | Cc1cc(Nc2nccc(C(F)(F)F)n2)cc(-c2ccc(NCCc3cnc[nH]3)nc2)c1 [Example 7.24, N-[3-(6-{[2-(1H-imidazol-4-yl)ethyl]amino}pyridin-3-yl)-5-methylphenyl]-4-(trifluoromethyl)pyrimidin-2-amine] | 6.00 to 7.00
8 | Cc1cc(Nc2nccc(C(F)(F)F)n2)cc(-c2ccc(NCc3cn(C)cn3)nc2)c1 [Example 7.25, N-[3-methyl-5-(6-{[(1-methyl-1H-imidazol-4-yl)methyl]amino}pyridin-3-yl)phenyl]-4-(trifluoromethyl)pyrimidin-2-amine] | > 7.00
9 | Cc1cc(Nc2nccc(C(F)(F)F)n2)cc(-c2ccc(N3CCNC(=O)CC3)nc2)c1 [Example 7.27, 1-[5-(3-methyl-5-{[4-(trifluoromethyl)pyrimidin-2-yl]amino}phenyl)pyridin-2-yl]-1,4-diazepan-5-one] | > 7.00
10 | CNC(=O)CN(C)c1ccc(-c2cc(C)cc(Nc3nccc(C(F)(F)F)n3)c2)cn1 [Example 7.28, N,N~2~-dimethyl-N~2~-[5-(3-methyl-5-{[4-(trifluoromethyl)pyrimidin-2-yl]amino}phenyl)pyridin-2-yl]glycinamide] | > 7.00
11 | Cc1cc(Nc2nccc(C(F)(F)F)n2)cc(-c2ccc(N(C)CCO)nc2)c1 [Example 7.30, 2-{methyl[5-(3-methyl-5-{[4-(trifluoromethyl)pyrimidin-2-yl]amino}phenyl)pyridin-2-yl]amino}ethanol] | > 7.00
12 | Cc1cc(Nc2nccc(C(F)(F)F)n2)cc(-c2ccc(N3CCC(C(N)=O)CC3)nc2)c1 [Example 7.32, 1-[5-(3-methyl-5-{[4-(trifluoromethyl)pyrimidin-2-yl]amino}phenyl)pyridin-2-yl]piperidine-4-carboxamide] | > 7.00
13 | Cc1cc(Nc2nccc(C(F)(F)F)n2)cc(-c2ccc(N3CCN(C)C(=O)C3)nc2)c1 [Example 7.33, 1-methyl-4-[5-(3-methyl-5-{[4-(trifluoromethyl)pyrimidin-2-yl]amino}phenyl)pyridin-2-yl]piperazin-2-one] | 6.00 to 7.00
14 | Cc1cc(Nc2nccc(C(F)(F)F)n2)cc(-c2ccc(N3CC(O)C3)nc2)c1 [Example 7.36, 1-[5-(3-methyl-5-{[4-(trifluoromethyl)pyrimidin-2-yl]amino}phenyl)pyridin-2-yl]azetidin-3-ol] | > 7.00
15 | CC(=O)NCCNc1ccc(-c2cc(C)cc(Nc3nccc(C(F)(F)F)n3)c2)cn1 [Example 7.37, N-(2-{[5-(3-methyl-5-{[4-(trifluoromethyl)pyrimidin-2-yl]amino}phenyl)pyridin-2-yl]amino}ethyl)acetamide] | > 7.00
16 | Cc1cc(Nc2nccc(C(F)(F)F)n2)cc(-c2ccc(N(C)CC(=O)O)nc2)c1 [Example 7.39, N-methyl-N-[5-(3-methyl-5-{[4-(trifluoromethyl)pyrimidin-2-yl]amino}phenyl)pyridin-2-yl]glycine] | > 7.00
17 | Cc1cc(Nc2nccc(C(F)(F)F)n2)cc(-c2ccc(N(C)CCC3OCCO3)nc2)c1 [Example 7.41, N-[3-(6-{[2-(1,3-dioxolan-2-yl)ethyl](methyl)amino}pyridin-3-yl)-5-methylphenyl]-4-(trifluoromethyl)pyrimidin-2-amine] | 6.00 to 7.00

Further lines, results first:

Row | pIC50 | Structure (SMILES)
18 | > 7.00 | Cc1cc(Nc2nccc(C(F)(F)F)n2)cc(-c2ccc(NCC(O)C(F)F)nc2)c1 (stereo not shown) [Example 7.17, 1,1-difluoro-3-{[5-(3-methyl-5-{[4-(trifluoromethyl)pyrimidin-2-yl]amino}phenyl)pyridin-2-yl]amino}propan-2-ol]
19 | > 7.00 | CCC(CO)Nc1ccc(-c2cc(C)cc(Nc3nccc(C(F)(F)F)n3)c2)cn1 (stereo not shown) [Example 7.23, 2-{[5-(3-methyl-5-{[4-(trifluoromethyl)pyrimidin-2-yl]amino}phenyl)pyridin-2-yl]amino}butan-1-ol]
20 | > 7.00 | Cc1cc(Nc2nccc(C(F)(F)F)n2)cc(-c2ccc(NCCN)nc2)c1 [Example 7.25A, N-[5-(3-methyl-5-{[4-(trifluoromethyl)pyrimidin-2-yl]amino}phenyl)pyridin-2-yl]ethane-1,2-diamine]
21 | > 7.00 | Cc1cc(Nc2nccc(C(F)(F)F)n2)cc(-c2ccc(NCCCN)nc2)c1 [Example 7.26, N-[5-(3-methyl-5-{[4-(trifluoromethyl)pyrimidin-2-yl]amino}phenyl)pyridin-2-yl]propane-1,3-diamine]
22 | > 7.00 | CNC(=O)CNc1ccc(-c2cc(C)cc(Nc3nccc(C(F)(F)F)n3)c2)cn1 [Example 7.29, N-methyl-N~2~-[5-(3-methyl-5-{[4-(trifluoromethyl)pyrimidin-2-yl]amino}phenyl)pyridin-2-yl]glycinamide]
23 | > 7.00 | Cc1cc(Nc2nccc(C(F)(F)F)n2)cc(-c2ccc(NCC(N)=O)nc2)c1 [Example 7.31, N~2~-[5-(3-methyl-5-{[4-(trifluoromethyl)pyrimidin-2-yl]amino}phenyl)pyridin-2-yl]glycinamide]
24 | 6.00 to 7.00 | Cc1cc(Nc2nccc(C(F)(F)F)n2)cc(-c2ccc(NC(C)(C)CO)nc2)c1 [Example 7.35, 2-methyl-2-{[5-(3-methyl-5-{[4-(trifluoromethyl)pyrimidin-2-yl]amino}phenyl)pyridin-2-yl]amino}propan-1-ol]
25 | > 7.00 | Cc1cc(Nc2nccc(C(F)(F)F)n2)cc(-c2ccc(NCC(C)O)nc2)c1 (stereo not shown) [Example 7.40, 1-{[5-(3-methyl-5-{[4-(trifluoromethyl)pyrimidin-2-yl]amino}phenyl)pyridin-2-yl]amino}propan-2-ol]
